From patent US20090012766A1, “Event Sequencer” (NATIONAL INSTITUTE OF ADVANCED INDUSTRIAL SCIENCE AND …, priority 2004, published 2009)

Experiments:
[1] = system: cells resistant or sensitive to the anticancer agent; assay: Time-lapse profiles of cells exposed to an anticancer agent; type: cell-based; conditions: 1 μM, 5 μM, 10 μM and the like
Procedure: In this example, cisplatin was used as an exemplary anticancer agent and mixed into medium contacting cells. The concentration of the anticancer agent was selected as appropriate, such as 1 μM, 5 μM, 10 μM, and the like, to observe the reaction of the cells. Cisplatin was applied to cells resistant or sensitive to the anticancer agent. Time-lapse observation was conducted to produce profiles as in the above-described examples.

HEK293 cells = assay: Solid phase transfection with actin-like acting substances, gelatin as control (FIG. 1); type: cell-based, human
Procedure: (§1) The final concentration of DNA was adjusted to 1 μg/μL. An actin-like acting substance was stored as a stock having a concentration of 10 μg/μL, in ddH2O. All dilutions were made using PBS, ddH2O, or Dulbecco's MEM. A series of dilutions, for example, 0.2 μg/μL, 0.27 μg/μL, 0.4 μg/μL, 0.53 μg/μL, 0.6 μg/μL, 0.8 μg/μL, 1.0 μg/μL, 1.07 μg/μL, 1.33 μg/μL, and the like, were formulated.
In Example 2, the following 5 cells were used to confirm an effect: human mesenchymal stem cell (hMSCs, PT-2501, Cambrex BioScience Walkersville, Inc., MD); human embryonic renal cell (HEK293, RCB1637, RIKEN Cell Bank, JPN); NIH3T3-3 cell (RCB0150, RIKEN Cell Bank, JPN); HeLa cell (RCB0007, RIKEN Cell Bank, JPN); and HepG2(RCB1648, RIKEN Cell Bank, JPN). These cells were cultured in DMEM/10% IFS containing L-glutamine and penicillin/streptomycin.
(§2) Transfection reagents and DNA were mixed to form a DNA-transfection reagent complex. Formation of the complex requires a certain period of time. Therefore, the mixture was spotted onto a solid phase support (e.g., a poly-L-lysine slide) using an arrayer. In Example 2, as a solid phase support, an APS slide, a MAS slide, and an uncoated slide were used, as well as a poly-L-lysine slide. These slides are available from Matsunami Glass (Kishiwada, Japan), or the like.
Although the actin-like acting substance might be used during complex formation, it was also used immediately before spotting in the present Example.
300 μL of DNA concentrated buffer (EC buffer)+16 μL of an enhancer were mixed in an Eppendorf tube. The mixture was mixed with a Vortex, followed by incubation for 5 minutes. […]
Gene introduction was evaluated by detection using, for example, immunofluorescence, fluorescence microscope examination, laser scanning, radioactive labels, and sensitive films, or emulsion.
(§3) To quantify transfection efficiency, the present inventors use a DNA microarray scanner (GeneTAC UC4×4, Genomic Solutions Inc., MI). Total fluorescence intensity (arbitrary unit) was measured, and thereafter, fluorescence intensity per unit surface area was calculated.

Mesenchymal Stem Cells = assay: Solid phase transfection at varied fibronectin concentration on PLL, APS and uncoated slides (FIG. 7); type: cell-based, human
Procedure: as §1, §2
The growing cells were adjusted to a concentration of 10^7 cells/25 mL. The cells were plated on the slide in a 100×100×15 mm squared Petri dish or a 100 mm (radius)×15 mm circular dish. Transfection was conducted for about 40 hours. This period of time corresponded to about 2 cell cycles. The slide was treated for immunofluorescence.
as §3
In FIG. 7, slides coated with PLL (poly-L-lysine), APS and uncoated slides are shown.

Human Mesenchymal Cell = assay: Cell adhesion profile, actin filaments and nuclear surface area with or without fibronectin (FIGS. 8-10); type: cell-based; conditions: presence of fibronectin

N.N.[Cl][Pt][Cl] [cisplatin]
time-lapse profiles [1]: varied depending on the difference in cisplatin concentration and resistance/sensitivity

laminin
transfection in the system using the actin-like acting substance (HEK293 cells): transfection took place to a significant level

gelatin [reference compound]
transfection in the system using the actin-like acting substance (HEK293 cells): transfection was not very successful

fibronectin
transfection in the system using the actin-like acting substance (HEK293 cells): transfection took place to a significant level | fibronectin concentration at which the effect was further increased (Mesenchymal Stem Cells; APS slides): > 1.07 µg/µL | fibronectin concentration at which transfection efficiency reached a plateau (Mesenchymal Stem Cells; PLL coating and absence of coating): more than 0.53 μg/μL | transfection efficiency as a function of fibronectin concentration (Mesenchymal Stem Cells; fibronectin 0 to 1.33 μg/μL, PLL, APS, uncoated slides): increased with an increase in fibronectin concentration | surface area of the nucleus (Human Mesenchymal Cell): significantly increased | extension of adherent cells (Human Mesenchymal Cell; initial 3 hours of culture): full extension of cells
